pEC50: −log10 of the molar value.

Series [1] deals with ME1 (ME-1) cells. Nature of the series: CellTiter-Glo cell viability (single agent and combination). The note with it: ME1, 72 h. Type of series: cell-based. Background: In ATP-based viability assays light output follows the ATP content of the culture.
The subject of series [2] is NSCLC cell lines HCC-827, H1975, PC-9 and H1781. The experiment in a line: CellTiter-Glo cell viability in NSCLC cell lines. It is filed as cell-based. The following applies: 98-50000 nM, 3 days; HCC-827, H1975, PC-9, H1781. As for the experimental part: The NSCLC cell lines HCC-827 (EGFR L858R), H1975 (EGFR L858R/T790M) PC-9 (EGFR Del E746_A750) and H1781 (HER2 G7776insV G/C) were treated with MPC-0767 at a concentration range of 98-50000 nM for 3 days, after which time cell viability was determined using CellTiter-Glo® reagent.

For series [3], the system named is primary AML samples harboring FLT3-ITD. Nature of the series: Annexin V / 7AAD cell death by flow cytometry. Type of series: cell-based, human. The following applies: increasing concentrations, 72 hours, 4 primary samples. As for the experimental part:
To test whether the anti-leukemic effect of MPC-0767 is due to induction of cell death, 4 primary AML samples (all harboring FLT3-ITD) were treated with increasing concentrations of MPC-0767 for 72 hours. Samples were then processed for quantification by flow cytometry of cells positive for annexin V and 7AAD. These markers allow the detection of cell death, specifically dead (7AAD only positive), early apoptotic (annexin V only positive) or late stage apoptotic/necrotic (7AAD and annexin V positive) populations were combined to give a readout of cell death.
On the technique in general: Flow cytometry measures light scatter and fluorescence of single cells or particles in a stream.

In series [4] the test system is MOLM16 cells. Nature of the series: CellTiter-Glo cell viability. Type of series: cell-based. The note with it: MOLM16, 72 h.
The test system of series [5] is MOLM-13-LUC cells. The experiment in a line: CellTiter-Glo cell viability. The note with it: Homo sapiens, 72 hours. It is filed as cell-based. The text has this:
In the clinic, tyrosine kinase inhibitors that target FLT3 initially show positive responses, but patients inevitably relapse due to the development of drug-resistance through various mechanisms, as discussed above.

Series [6] concerns EGFR wild type (WT) in BaF3 cells. Nature of the series: Cell surface EGFR expression in BaF3 cells by flow cytometry. Type of series: cell-based, murine. The note with it: Mus musculus; BaF3, 24 hours; read-out: EC50 for reduction of cell surface EGFR WT. The text has this: (§1) To determine whether MPC-0767 can also promote degradation of an EGFR exon20ins mutant, the BaF3 murine cell line was used (Warmuth et al., Curr Opin Oncol., 200719: 55-60). This cell line is dependent upon exogenous IL-3 for survival/growth but upon introduction of an oncogene, the cells no longer depend on exogenous IL-3, and instead survival is driven by the introduced oncogene. Thus, drugs that target the introduced oncogene will reduce BaF3 cell viability providing a mechanism to screen small molecules against relevant oncogenic mutations that arise in the clinic.
(§2) BaF3 cells harboring EGFR wild type (WT) or EGFR exon20 V769_D770insASV mutant were treated with increasing concentrations of MPC-0767 for 24 hours. After this time, cells were harvested for flow cytometry to assess cell surface EGFR expression (antibody for detection recognized both WT and mutant proteins). […] We further tested whether this finding translated to reduced survival in BaF3 cells expressing the EGFR mutant. Parental BaF3 cells (no mutant) or cells harboring EGFR exon20 V769_D770insASV were treated with increasing concentrations of MPC-0767 for 72 hours after which cell viability was determined using CellTiter-Glo®.

For series [7], the system named is EGFR exon20 V769_D770insASV mutant in BaF3 cells. Described as above. It is filed as cell-based, murine. The following applies: Mus musculus; BaF3, 24 hours; read-out: EC50 for reduction of cell surface EGFR exon20 V769_D770insASV mutant.
Excerpt: as §1, §2

For series [8] the following is noted: cited from earlier work.
Series [9] has as its system cell surface FLT3 in MV-4-11 cells. Nature of the series: Cell surface FLT3 by flow cytometry. Type of series: cell-based. The following applies: MV-4-11, 1 μM, 24 hours. The method, then:
To determine whether MPC-0767 can promote the degradation of FLT3-ITD and abolish downstream signaling, MV-4-11 and MOLM-13 cells were treated with vehicle or MPC-0767 (1 μM) for 24 hours. Cells were harvested for flow cytometry to assess cell surface FLT3 protein abundance. In addition, the measurement of a key phosphorylation site of S6 (phospho-S6) was used as a marker for oncogenic FLT3-ITD signaling (Zimmerman et al., Blood. 2013 122(22): 3607-3615). Indeed, in both MV-4-11 and MOLM-13 cells treated with MPC-0767 there was a >65% reduction in cell surface FLT3 (FIGS. 10A and 10B, respectively) and >70% reduction in phospho-S6 (FIGS. 10C and 10D, respectively).

Series [10] concerns FLT3 WT AML cells. The experiment in a line: CellTiter-Glo viability of AML cell lines and primary AML samples. Type of series: cell-based. The note with it: FLT3 WT cells (n=11), 72 hours; read-out: geometric mean EC50 (cell viability). The method, then: (§3) Exponentially growing cell lines were counted and seeded into 96-well clear, flat-bottomed polystyrene microtiter plates in a final volume of 90 μL per well. For primary AML samples, cells were seeded into 384 well plates at a density of 2×10^4 cells in a final volume of 27 μL per well. To treat cell lines or primary samples 10 μL or 3 μL, respectively, of 10× concentrations of MPC-0767, were then added to the cells to give a final concentration of 10000 nM, 5000 nM, 2500 nM, 1250 nM, 625 nM, 313 nM, 156 nM, 78 nM, 39 and 20 nM. […] Cells were seeded and treated in duplicate. After incubation for three days, cell viability was determined by measuring intracellular ATP levels using the CellTiter-Glo® assay system by adding to each well either 100 μL for 96 well plates, or 30 μL for 384 well plates. Luminescence was detected using a plate reader.
(§4) The effect of drugs on cell viability was calculated by comparing the ATP levels (luminescence counts per second) of cells exposed to test compound with those of cells exposed to vehicle (DMSO) alone. The half-maximal effective concentration (EC50) for each cell line was determined using the R DRC package (R Core Team, 2017). In brief, the dose-response curves were fitted with a four-parameter logistic regression model (LL.4) according to (Eq-1) and the absolute EC50 was estimated using a confidence interval of 0.95.

Series [11] relates to FLT3-ITD AML cells. Described as above. The note with it: FLT3-ITD cells (n=8), 72 hours; read-out: geometric mean EC50 (cell viability). It is filed as cell-based. The method, then:
as §3, §4

The test system of series [12] is Parental BaF3 cells. Nature of the series: CellTiter-Glo cell viability. It is filed as cell-based, murine. The following applies: Mus musculus; parental BaF3, 72 hours.
Excerpt: as §1, §2

The subject of series [13] is BaF3 cells harboring EGFR exon20 V769_D770insASV. Nature of the series: CellTiter-Glo cell viability. Type of series: cell-based, murine.
Excerpt: as §1, §2

By pEC50 is commonly meant −log10 of the EC50, conventionally taken in molar units. Consider `C[C@H](N)C(=O)O[C@@H](C)C(=O)N1CCC(CCn2c(Sc3cc4c(cc3Br)OCO4)nc3c(N)ncnc32)CC1` [MPC-0767], for which the “MPC-0767 Sensitivity” value in series [1] was “Resistant (EC50 values above 1 μM considered resistant)”; in series [4] it was “Sensitive (cell lines having EC50 values below 1 μM were considered to be sensitive)”. The negative-log EC50 (pEC50) in series [1] (ME-1) is 5.47; in series [4], 6.44; in series [5], 6.30; in [6], 6.00; in series [7], 6.70; in [10], 5.82. Further, the pEC50 is 6.24 in series [11]; 6.12 in series [12]; 6.63 in series [13] (Mus musculus, BaF3 EGFR exon20 V769_D770insASV, 72 hours). Besides, the “EC50 (cell viability)” value in [2] is recorded as “within clinically achievable concentrations”. In addition, the “cell death (annexin V and/or 7AAD positive)” value in series [3] is “dose-dependent increase in cell death”. In addition, the aqueous solubility result in [8] was “improved aqueous solubility”. Besides, the “reduction in cell surface FLT3” value in series [9] is on record as over 65%. Also, in series [13] (mutant vs parental BaF3, 72 hours), the “sensitivity to MPC-0767 relative to parental cells” value was “approximately 3 times”.

The values are drawn from patent US20200253979A1, “THERAPEUTIC METHODS RELATING TO HSP90 INHIBITORS” (AI Therapeutics, Inc., priority 2017, published 2020).
